Reference: US8124629B2, “Naphthylacetic acids” (Hoffmann-La Roche Inc., priority 2008, dated 2012)

Biological target: T1, human CRTH2 (Homo sapiens, UniProt Q9Y5Y4)
T1 sequence (Q9Y5Y4 1-395): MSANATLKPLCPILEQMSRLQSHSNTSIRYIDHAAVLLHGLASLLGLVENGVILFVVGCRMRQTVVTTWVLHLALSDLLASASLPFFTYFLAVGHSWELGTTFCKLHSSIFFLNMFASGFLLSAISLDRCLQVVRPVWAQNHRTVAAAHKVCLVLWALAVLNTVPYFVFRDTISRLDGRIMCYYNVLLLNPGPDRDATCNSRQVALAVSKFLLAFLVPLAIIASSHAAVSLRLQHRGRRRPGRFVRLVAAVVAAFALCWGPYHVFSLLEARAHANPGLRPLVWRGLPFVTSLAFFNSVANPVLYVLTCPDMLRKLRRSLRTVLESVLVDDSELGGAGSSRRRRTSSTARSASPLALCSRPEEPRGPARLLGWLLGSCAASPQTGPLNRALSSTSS
Test: Human CRTH2 Receptor Binding Assay (whole cell, [3H]ramatroban)
Parameters: expressed in transfected cells; host or cells: CHO-K1
Conditions: CHO-K1 cells expressing human CRTH2 and G-alpha16; 20 nM [3H]ramatroban; 1 hour, room temperature
Description: A whole cell receptor binding assay using [^3H]ramatroban as the competing radioactive ligand was employed to evaluate the compound binding activity to human CRTH2. The radioactive ligand [^3H]ramatroban was synthesized according to Sugimoto et. al. (Eur. J. Pharmacol. 524, 30-37, 2005) to a specific activity of 42 Ci/mmol.
A cell line stably expressing human CRTH2 was established by transfecting CHO-K1 cells with two mammalian expression vectors that harbored human CRTH2 and G-alpha16 cDNAs, respectively, using FuGene® 6 transfection reagent (from Roche). Stable clones expressing CRTH2 were selected by staining each clone with BM16 (BD Pharmingen™ from BD Biosciences, a division of Becton, Dickinson and Company), which is a rat monoclonal antibody to human CRTH2. The cells were maintained as monolayer cultures in Ham's F-12 medium containing 10% fetal bovine serum, 100 units/mL penicillin, 100 μg/mL streptomycin, 2 mM glutamine, 0.5 mg/mL G418 (geneticin) for CRTH2, and 0.2 mg/mL hygromycin-B (for G-alpha 16). For whole cell receptor binding assay, the monolayer cells were rinsed once with PBS (phosphate buffered saline), dissociated using ethylenediaminetetraacetate (Versene™ EDTA from Lonza Inc.), and suspended in PBS containing 10 mM MgCl2 and 0.06% BSA (bovine serum albumin) at 1.5×10^6 cells/mL.
The binding reactions (0.2 mL) were performed in 96-well plates at room temperature in PBS containing 1.5×10^5 cells, 10 mM MgCl2, 0.06% BSA, 20 nM [^3H]ramatroban, and test compound at various concentrations. After 1 hour of binding reactions, the cells were harvested on GF™/B filter microplates (microtiter plates with embedded glass fiber from Perkin Elmer, Inc.) and washed 5 times with PBS using a Filtermate™ Harvester (a cell harvester that harvests and washes cells from microplates from PerkinElmer, Inc.). The radioactivities bound to the cells were determined using a microplate scintillation counter (TopCount® NXT, from PerkinElmer, Inc.) after adding 50 μL of Microscint™ 20 scintillation fluid (from PerkinElmer, Inc.) to each well of the filter plates. The radioactivity from non-specific binding was determined by replacing compound with 10 μM of 15(R)-15-methyl PGD2 (from Cayman Chemical Company) in the reaction mixtures. The radioactivity bound to the cells in the absence of compound (total binding) was determined by replacing compound with 0.25% of DMSO (dimethyl sulfoxide) in the reaction mixture. Specific binding data were obtained by subtracting the radioactivity of non-specific binding from each binding data.
The IC50 value is defined as the concentration of the tested compound that is required for 50% inhibition of total specific binding. In order to calculate the IC50 value, the percent inhibition data were determined for 7 concentrations for each compound. The percent inhibition for a compound at each concentration was calculated according to the following formula, [1-(specific binding in the presence of compound)/(total specific binding)]×100. The IC50 value was then obtained by fitting the percent inhibition data to a sigmoidal dose-response (4 parameter logistic) model in the XLfit® software Excel add-in program [from ID Business Solutions Ltd., model 205, where F(x)=(A+(B−A)/(1+((C/×)^D)))].

SMILES | IC50 [nM]
Cc1c(CC(=O)O)cc2ccc(F)cc2c1Cc1ccc(-n2cccn2)cc1 [Example 10-6, [6-Fluoro-3-methyl-4-(4-pyrazol-1-yl-benzyl)-naphthalen-2-yl]-acetic acid] | 26.7
Cc1c(CC(=O)O)cc2ccc(F)cc2c1Cc1cccc(-c2nnnn2C)c1 [Example 10-7, (6-Fluoro-3-methyl-4-[3-(1-methyl-1H-tetrazol-5-yl)-benzyl]-naphthalen-2-yl]-acetic acid] | 6.7
Cc1c(CC(=O)O)cc2ccc(F)cc2c1Cc1ccc(OCc2ccccc2)cc1 [Example 10-8, [4-(4-Benzyloxy-benzyl)-6-fluoro-3-methyl-naphthalen-2-yl]-acetic acid] | 5
Cc1c(CC(=O)O)cc2ccc(F)cc2c1Cc1cccc(C#N)c1 [Example 10-9, [4-(3-Cyano-benzyl)-6-fluoro-3-methyl-naphthalen-2-yl]-acetic acid] | 59.9
Cc1c(CC(=O)O)cc2ccc(F)cc2c1Cc1ccc(-c2nnnn2C)cc1 [Example 10-10, {6-Fluoro-3-methyl-4-[4-(1-methyl-1H-tetrazol-5-yl)-benzyl]-naphthalen-2-yl}-acetic acid] | 32.5
Cc1c(CC(=O)O)cc2ccc(F)cc2c1Cc1ccc(SCc2ccccc2)cc1 [Example 10-11, [4-(4-Benzylsulfanyl-benzyl)-6-fluoro-3-methyl-naphthalen-2-yl]-acetic acid] | 3.5
Cc1c(CC(=O)O)cc2ccc(Cl)cc2c1Cc1ccc(S(C)(=O)=O)cc1 [Example 10-12, [6-Chloro-4-(4-methanesulfonyl-benzyl)-3-methyl-naphthalen-2-yl]-acetic acid] | 10
Cc1c(CC(=O)O)cc2ccc(F)cc2c1Cc1cccc(S(=O)(=O)C(F)(F)F)c1 [Example 11-2, [6-Fluoro-3-methyl-4-(3-trifluoromethanesulfonyl-benzyl)-naphthalen-2-yl]-acetic acid] | 68
Cc1c(CC(=O)O)cc2ccc(F)cc2c1Cc1ccc(S(=O)(=O)Cc2ccccc2)cc1 [Example 11-3, [6-Fluoro-3-methyl-4-(4-phenylmethanesulfonyl-benzyl)-naphthalen-2-yl]-acetic acid] | 2.7
Cc1c(CC(=O)O)cc2ccc(F)cc2c1Cc1ccc(-c2ccc(S(C)(=O)=O)cc2)cc1 [Example 12-1, [6-Fluoro-4-(4′-methanesulfonyl-biphenyl-4-ylmethyl)-3-methyl-naphthalen-2-yl]-acetic acid] | 5.6
Cc1c(CC(=O)O)cc2ccc(F)cc2c1Cc1ccc(-c2cncnc2)cc1 [Example 12-2, [6-Fluoro-3-methyl-4-(4-pyrimidin-5-yl-benzyl)-naphthalen-2-yl]-acetic acid] | 10.2
Cc1c(CC(=O)O)cc2ccc(F)cc2c1Cc1ccccc1S(=O)(=O)c1ccccc1 [Example 14-1] | 5.4
Cc1ccc(Cc2c(C)c(CC(=O)O)cc3ccc(F)cc23)cc1 [Example 15-1, [6-Fluoro-3-methyl-4-(4-methyl-benzyl)-naphthalen-2-yl]-acetic acid] | 60.1
Cc1c(CC(=O)O)cc2ccc(F)cc2c1Cc1ccc(F)cc1 [Example 15-3, [6-Fluoro-4-(4-fluoro-benzyl)-3-methyl-naphthalen-2-yl]-acetic acid] | 32.8
Cc1c(CC(=O)O)cc2ccc(F)cc2c1Cc1ccc(OC(F)(F)F)cc1 [Example 15-4, [6-Fluoro-3-methyl-4-(4-trifluoromethoxy-benzyl)-naphthalen-2-yl]-acetic acid] | 79.3
COC(=O)c1cccc(Cc2c(C)c(CC(=O)O)cc3ccc(F)cc23)c1 [Example 15-5, 3-(3-Carboxymethyl-7-fluoro-2-methyl-naphthalen-1-ylmethyl)-benzoic acid methyl ester] | 27.6

Now from value to molecule:

IC50 [nM] | SMILES
3.1 | CCS(=O)(=O)c1ccc(Cc2c(C)c(CC(=O)O)cc3ccc(F)cc23)cc1 [Example 13-1, [4-(4-Ethanesulfonyl-benzyl)-6-fluoro-3-methyl-naphthalen-2-yl]-acetic acid]
83.8 | Cc1c(CC(=O)O)cc2ccc(F)cc2c1Cc1cccc(Cl)c1 [Example 15-2, [4-(3-Chloro-benzyl)-6-fluoro-3-methyl-naphthalen-2-yl]-acetic acid]
16.1 | CS(=O)(=O)c1ccc(C(O)c2cc(CC(=O)O)cc3ccc(F)cc23)c(Cl)c1 (stereo not drawn) [Example 16-1, {4-[(2-Chloro-4-methanesulfonyl-phenyl)-hydroxy-methyl]-6-fluoro-naphthalen-2-yl}-acetic acid]
15.9 | CS(=O)(=O)c1ccc(C(O)c2cc(CC(=O)O)cc3ccc(Cl)cc23)cc1 (stereo not drawn) [Example 16-3, {6-Chloro-4-[hydroxy-(4-methanesulfonyl-phenyl)-methyl]-naphthalen-2-yl}-acetic acid]
31.9 | Cc1cc(S(C)(=O)=O)ccc1C(O)c1cc(CC(=O)O)cc2ccc(F)cc12 (stereo not drawn) [Example 16-4, {6-Fluoro-4-[hydroxy-(4-methanesulfonyl-2-methyl-phenyl)-methyl]-naphthalen-2-yl}-acetic acid]
8 | CS(=O)(=O)c1ccc(C(O)c2cc(CC(=O)O)cc3ccc(F)cc23)cc1 (stereo not drawn) [Example 16-5, {6-Fluoro-4-[hydroxy-(4-methanesulfonyl-phenyl)-methyl]-naphthalen-2-yl}-acetic acid]
35.2 | CS(=O)(=O)c1ccc(C(O)c2cc(CC(=O)O)cc3ccccc23)cc1 (stereo not drawn) [Example 16-6, {4-[Hydroxy-(4-methanesulfonyl-phenyl)-methyl]-naphthalen-2-yl}-acetic acid]
17.4 | CCS(=O)(=O)c1ccc(C(O)c2cc(CC(=O)O)cc3ccc(F)cc23)cc1 (stereo not drawn) [Example 16-7, {4-[(4-Ethanesulfonyl-phenyl)-hydroxy-methyl]-6-fluoro-naphthalen-2-yl}-acetic acid]
18.9 | CCS(=O)(=O)c1ccc(C(O)c2cc(CC(=O)O)cc3ccc(F)cc23)c(C)c1 (stereo not drawn) [Example 16-8, {4-[(4-Ethanesulfonyl-2-methyl-phenyl)-hydroxy-methyl]-6-fluoro-naphthalen-2-yl}-acetic acid]
5.7 | CS(=O)(=O)c1ccc(C(F)(F)c2cc(CC(=O)O)cc3ccc(F)cc23)c(Cl)c1 [Example 17-1, {4-[(2-Chloro-4-methanesulfonyl-phenyl)-difluoro-methyl]-6-fluoro-naphthalen-2-yl}-acetic acid]
3.1 | CS(=O)(=O)c1ccc(C(F)(F)c2cc(CC(=O)O)cc3ccc(F)cc23)cc1 [Example 17-2, {4-[Difluoro-(4-methanesulfonyl-phenyl)-methyl]-6-fluoro-naphthalen-2-yl}-acetic acid]
3.9 | CCS(=O)(=O)c1ccc(C(F)(F)c2cc(CC(=O)O)cc3ccc(F)cc23)cc1 [Example 17-3, {4-[(4-Ethanesulfonyl-phenyl)-difluoro-methyl]-6-fluoro-naphthalen-2-yl}-acetic acid]
40.4 | COC(c1ccc(S(C)(=O)=O)cc1)c1cc(CC(=O)O)cc2ccc(F)cc12 (stereo not drawn) [Example 18-1, {6-Fluoro-4-[(4-methanesulfonyl-phenyl)-methoxy-methyl]-naphthalen-2-yl}-acetic acid]
11.8 | Cc1c(CC(=O)O)cc2ccc(F)cc2c1C(O)c1ccc(S(C)(=O)=O)cc1 (stereo not drawn) [Example 19-1, {6-Fluoro-4-[hydroxy-(4-methanesulfonyl-phenyl)-methyl]-3-methyl-naphthalen-2-yl}-acetic acid]
